Reference: US8440628B2, “Medical compositions containing ghrelin” (Daiichi Sankyo Company, Limited, priority 2002, dated 2013)

Legend:
Assay type in all cases: physicochemical
[1] = Stability of human ghrelin in 0.1M HCl and Mcllvain buffer solutions of various pH at 25°C (Example 2, HPLC peak area ratio)
Experimental: Human ghrelin was dissolved in the following aqueous solutions in the concentration of about 0.15 μmol/mL (0.5 mg/mL).
0.1M HCl aqueous solution (pH: 1.1)
The pH was adjusted with 0.1M citric aqueous acid and 0.2M dibasic sodium phosphate aqueous solution.
Each solution were stored at 25±2° C. for 8, 24, 48 and 72 hours respectively, and the obtained solutions were detected by HPLC analysis in comparison to the solutions before storage. […] No significant changes of pH in solution before storage and after storage were observed.

[2] = Stability of human ghrelin in Britton-Robinson buffer solutions of various pH at 40°C (Example 3); settings: pH range of 2 to 7, stored at 40° C. for 1 day (FIG. 3)
Experimental: Human ghrelin, which is one of the ghrelins, was dissolved in the Britton-Robinson buffer solutions which is adjusted by combining 0.04M phosphoric acid-acetic acid-boric acid aqueous solution and 0.2M sodium hydrate aqueous solution in appropriate ratio, having pH of 2.1, 3.1, 4.0, 5.0, 6.0, 7.0 and 7.9 to obtain an aqueous solution containing human ghrelin in the concentration of about 0.15 μmol/mL (0.5 mg/mL). The obtained solution was filled in brownish glass ampoules and the ampoules were sealed with fire. For the calculation of kinetic constant, the certain degrees of degradation products have to be occurred in the aqueous solution of the ghrelins, and therefore, the ampoules were stored at 40±1° C., which was severe conditions for storage. The concentration (residual ratio) of human ghrelin was conducted by HPLC with time. At the same time, the pH of the solution was measured and it was confirmed that there was no significant changes of pH in solution.
The kinetic constants in each pH solution were calculated from the sequential change of the residual ratio, and the results were shown in FIG. 2.

[3] = Stability of human ghrelin in pH-adjusted purified water at 25°C (Example 7); settings: for Peak area ratio to total peak area: 25±2°C
Experimental: Human ghrelin was dissolved in the purified water with about 0.03 μmol/mL (0.1 mg/mL). […] This solution was divided into quarter, and one portion was kept alone and the pH values of the remaining three portions were adjusted to pH 1.8 (with 17 mM of hydrochloric acid), pH 3.9 (with 0.20 mM of hydrochloric acid) and pH 7.8 (with 0.24 mM of sodium hydroxide) respectively, by adding along with hydrochloric acid or sodium hydroxide aqueous solution.

Substance: [3-Dehydroalanine]human ghrelin [Dha compound]
- Production of the degradation product in human ghrelin solution ([1]; Mcllvain buffer, pH range of 3.0 to 5.0, 25±2°C, up to 72 hours): inhibited
- Peak area ratio to total peak area ([1]; human ghrelin 0.5 mg/mL in 0.1M HCl aqueous solution, pH 1, 25±2°C, 8 hr. after): 0.15%
- Peak area ratio to total peak area ([1]; human ghrelin 0.5 mg/mL in 0.1M HCl aqueous solution, pH 1, 25±2°C, 24 hr. after): 0.09%
- Peak area ratio to total peak area ([1]; human ghrelin 0.5 mg/mL in 0.1M HCl aqueous solution, pH 1, 25±2°C, 48 hr. after): 0.04%
- Peak area ratio to total peak area ([1]; human ghrelin 0.5 mg/mL in 0.1M HCl aqueous solution, pH 1, 25±2°C, 72 hr. after): 0.00%
- Peak area ratio to total peak area ([1]; human ghrelin 0.5 mg/mL in 0.1M HCl aqueous solution, pH 1, 25±2°C, before storage): 0.21%
- Peak area ratio to total peak area ([1]; human ghrelin 0.5 mg/mL in Mcllvain buffer, pH 2, 25±2°C, 8 hr. after): 0.20%
- Peak area ratio to total peak area ([1]; human ghrelin 0.5 mg/mL in Mcllvain buffer, pH 2, 25±2°C, 24 hr. after): 0.23%
- Peak area ratio to total peak area ([1]; human ghrelin 0.5 mg/mL in Mcllvain buffer, pH 2, 25±2°C, 48 hr. after): 0.24%
- Peak area ratio to total peak area ([1]; human ghrelin 0.5 mg/mL in Mcllvain buffer, pH 2, 25±2°C, 72 hr. after): 0.25%
- Peak area ratio to total peak area ([1]; human ghrelin 0.5 mg/mL in Mcllvain buffer, pH 2, 25±2°C, before storage): 0.20%
- Peak area ratio to total peak area ([1]; human ghrelin 0.5 mg/mL in Mcllvain buffer, pH 3, 25±2°C, 8 hr. after): 0.20%
- Peak area ratio to total peak area ([1]; human ghrelin 0.5 mg/mL in Mcllvain buffer, pH 3, 25±2°C, 24 hr. after): 0.23%
- Peak area ratio to total peak area ([1]; human ghrelin 0.5 mg/mL in Mcllvain buffer, pH 3, 25±2°C, 48 hr. after): 0.24%
- Peak area ratio to total peak area ([1]; human ghrelin 0.5 mg/mL in Mcllvain buffer, pH 3, 25±2°C, 72 hr. after): 0.25%
- Peak area ratio to total peak area ([1]; human ghrelin 0.5 mg/mL in Mcllvain buffer, pH 3, 25±2°C, before storage): 0.20%
- Peak area ratio to total peak area ([1]; human ghrelin 0.5 mg/mL in Mcllvain buffer, pH 4, 25±2°C, 8 hr. after): 0.20%
- Peak area ratio to total peak area ([1]; human ghrelin 0.5 mg/mL in Mcllvain buffer, pH 4, 25±2°C, 24 hr. after): 0.21%
- Peak area ratio to total peak area ([1]; human ghrelin 0.5 mg/mL in Mcllvain buffer, pH 4, 25±2°C, 48 hr. after): 0.22%
- Peak area ratio to total peak area ([1]; human ghrelin 0.5 mg/mL in Mcllvain buffer, pH 4, 25±2°C, 72 hr. after): 0.23%
- Peak area ratio to total peak area ([1]; human ghrelin 0.5 mg/mL in Mcllvain buffer, pH 4, 25±2°C, before storage): 0.20%
- Peak area ratio to total peak area ([1]; human ghrelin 0.5 mg/mL in Mcllvain buffer, pH 5, 25±2°C, 8 hr. after): 0.21%
- Peak area ratio to total peak area ([1]; human ghrelin 0.5 mg/mL in Mcllvain buffer, pH 5, 25±2°C, 24 hr. after): 0.21%
- Peak area ratio to total peak area ([1]; human ghrelin 0.5 mg/mL in Mcllvain buffer, pH 5, 25±2°C, 48 hr. after): 0.23%
- Peak area ratio to total peak area ([1]; human ghrelin 0.5 mg/mL in Mcllvain buffer, pH 5, 25±2°C, 72 hr. after): 0.24%
- Peak area ratio to total peak area ([1]; human ghrelin 0.5 mg/mL in Mcllvain buffer, pH 5, 25±2°C, before storage): 0.21%
- Peak area ratio to total peak area ([1]; human ghrelin 0.5 mg/mL in Mcllvain buffer, pH 6, 25±2°C, 8 hr. after): 0.21%
- Peak area ratio to total peak area ([1]; human ghrelin 0.5 mg/mL in Mcllvain buffer, pH 6, 25±2°C, 24 hr. after): 0.26%
- Peak area ratio to total peak area ([1]; human ghrelin 0.5 mg/mL in Mcllvain buffer, pH 6, 25±2°C, 48 hr. after): 0.31%
- Peak area ratio to total peak area ([1]; human ghrelin 0.5 mg/mL in Mcllvain buffer, pH 6, 25±2°C, 72 hr. after): 0.35%
- Peak area ratio to total peak area ([1]; human ghrelin 0.5 mg/mL in Mcllvain buffer, pH 6, 25±2°C, before storage): 0.20%
- Peak area ratio to total peak area ([1]; human ghrelin 0.5 mg/mL in Mcllvain buffer, pH 7, 25±2°C, 8 hr. after): 0.25%
- Peak area ratio to total peak area ([1]; human ghrelin 0.5 mg/mL in Mcllvain buffer, pH 7, 25±2°C, 24 hr. after): 0.43%
- Peak area ratio to total peak area ([1]; human ghrelin 0.5 mg/mL in Mcllvain buffer, pH 7, 25±2°C, 48 hr. after): 0.61%
- Peak area ratio to total peak area ([1]; human ghrelin 0.5 mg/mL in Mcllvain buffer, pH 7, 25±2°C, 72 hr. after): 0.79%
- Peak area ratio to total peak area ([1]; human ghrelin 0.5 mg/mL in Mcllvain buffer, pH 7, 25±2°C, before storage): 0.22%
- Peak area ratio to total peak area ([1]; human ghrelin 0.5 mg/mL in Mcllvain buffer, pH 8, 25±2°C, 8 hr. after): 0.68%
- Peak area ratio to total peak area ([1]; human ghrelin 0.5 mg/mL in Mcllvain buffer, pH 8, 25±2°C, 24 hr. after): 1.39%
- Peak area ratio to total peak area ([1]; human ghrelin 0.5 mg/mL in Mcllvain buffer, pH 8, 25±2°C, 48 hr. after): 2.39%
- Peak area ratio to total peak area ([1]; human ghrelin 0.5 mg/mL in Mcllvain buffer, pH 8, 25±2°C, 72 hr. after): 3.12%
- Peak area ratio to total peak area ([1]; human ghrelin 0.5 mg/mL in Mcllvain buffer, pH 8, 25±2°C, before storage): 0.24%
- Production of the degradation product in human ghrelin solution [2]: inhibited
- Production of the degradation product in human ghrelin solution ([3]; aqueous solution of pH 3.9 and 4.7, 25±2°C, up to 3 days): inhibited
- Peak area ratio to total peak area ([3]; human ghrelin 0.1 mg/mL in purified water adjusted to pH 1.8 with hydrochloric acid, 1 day after): 0.31%
- Peak area ratio to total peak area ([3]; human ghrelin 0.1 mg/mL in purified water adjusted to pH 1.8 with hydrochloric acid, before storage): 0.20%
- Peak area ratio to total peak area ([3]; human ghrelin 0.1 mg/mL in purified water adjusted to pH 3.9 with hydrochloric acid, 1 day after): 0.20%
- Peak area ratio to total peak area ([3]; human ghrelin 0.1 mg/mL in purified water adjusted to pH 3.9 with hydrochloric acid, 3 days after): 0.19%
- Peak area ratio to total peak area ([3]; human ghrelin 0.1 mg/mL in purified water adjusted to pH 3.9 with hydrochloric acid, before storage): 0.20%
- Peak area ratio to total peak area ([3]; human ghrelin 0.1 mg/mL in purified water adjusted to pH 7.8 with sodium hydroxide, 1 day after): 0.86%
- Peak area ratio to total peak area ([3]; human ghrelin 0.1 mg/mL in purified water adjusted to pH 7.8 with sodium hydroxide, before storage): 0.24%
- Peak area ratio to total peak area ([3]; human ghrelin 0.1 mg/mL in purified water, pH 4.7 (not adjusted), 1 day after): 0.21%
- Peak area ratio to total peak area ([3]; human ghrelin 0.1 mg/mL in purified water, pH 4.7 (not adjusted), 3 days after): 0.21%
- Peak area ratio to total peak area ([3]; human ghrelin 0.1 mg/mL in purified water, pH 4.7 (not adjusted), before storage): 0.20%
